{"source": "ChEMBL document CHEMBL5104149", "about": "“Monoterpene substituted thiazolidin-4-ones as novel TDP1 inhibitors: Synthesis, biological evaluation and docking” (Bioorg Med Chem Lett, 2022)", "key": {"[1]": {"target": "Tyrosyl-DNA phosphodiesterase 1 (Homo sapiens, UniProt Q9NUW8)", "sequence (Q9NUW8 whole entry)": "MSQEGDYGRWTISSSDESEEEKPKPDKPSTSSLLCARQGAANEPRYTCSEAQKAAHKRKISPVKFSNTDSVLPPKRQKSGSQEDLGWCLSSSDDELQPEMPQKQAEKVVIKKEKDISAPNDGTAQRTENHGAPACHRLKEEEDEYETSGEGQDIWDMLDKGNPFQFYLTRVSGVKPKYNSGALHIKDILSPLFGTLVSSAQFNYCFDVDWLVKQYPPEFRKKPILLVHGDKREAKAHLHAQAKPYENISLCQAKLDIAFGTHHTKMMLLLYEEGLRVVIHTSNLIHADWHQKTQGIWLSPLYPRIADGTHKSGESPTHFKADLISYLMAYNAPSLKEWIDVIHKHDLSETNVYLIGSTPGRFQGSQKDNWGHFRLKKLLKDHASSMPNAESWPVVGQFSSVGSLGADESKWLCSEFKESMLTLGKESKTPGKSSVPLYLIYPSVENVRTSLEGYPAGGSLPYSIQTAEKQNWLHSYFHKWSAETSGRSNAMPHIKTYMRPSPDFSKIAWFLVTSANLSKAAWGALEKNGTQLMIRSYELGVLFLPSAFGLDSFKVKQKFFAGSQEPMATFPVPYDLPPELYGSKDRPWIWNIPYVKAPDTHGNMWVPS", "test": "Inhibition of recombinant human TDP1 measured by real-time oligonucleotide biosensor assay"}, "HeLa [2]": {"tested_on": "HeLa", "test": "Synergistic cytotoxicity against human HeLa cells assessed as combination index at 20 uM in presence of 5 uM topotecan", "format": "functional"}, "[3]": {"test": "Cytotoxicity against human HeLa cells", "format": "toxicity, cell-based"}, "[4]": {"test": "Cytotoxicity against human HEK293-A cells", "format": "toxicity, cell-based"}, "HeLa [5]": {"tested_on": "HeLa", "test": "Cytotoxicity against human HeLa cells at 10 uM in presence of 2 to 16 uM topotecan", "format": "functional, cell-based"}, "HeLa [6]": {"tested_on": "HeLa", "test": "Synergistic cytotoxicity against human HeLa cells assessed as combination index at 5 uM in presence of 5 uM topotecan", "format": "functional"}}, "note": "The source made the active and inactive calls. The rule behind the calls is not given here."}
{"smiles": "CC(C)CCCC(C)CC1SCC(=O)N1Cc1ccccc1", "note": "(stereo not drawn)", "values": [{"measurement": "IC50", "setting": "[1]", "result": "> 100", "unit": "µM"}]}
{"smiles": "CC(C)=CCC/C(C)=C/COc1ccc(C2SCC(=O)N2Cc2ccccc2)cc1", "note": "(stereo not drawn)", "values": [{"measurement": "CI", "setting": "HeLa [2]", "result": 0.13}, {"measurement": "CC50", "setting": "[3]", "result": "> 100", "unit": "µM"}, {"measurement": "IC50", "setting": "[1]", "result": 2.9, "unit": "µM"}, {"measurement": "CC50", "setting": "[4]", "result": "> 100", "unit": "µM"}, {"measurement": "Activity", "setting": "HeLa [5]", "result": "Active"}]}
{"smiles": "CC1(C)C2CC=C(CCOc3ccc(C4SCC(=O)N4Cc4ccccc4)cc3)C1C2", "note": "(stereo not drawn)", "values": [{"measurement": "CI", "setting": "HeLa [2]", "result": 0.21}, {"measurement": "CC50", "setting": "[3]", "result": "> 100", "unit": "µM"}, {"measurement": "IC50", "setting": "[1]", "result": 2.1, "unit": "µM"}, {"measurement": "CC50", "setting": "[4]", "result": "> 100", "unit": "µM"}, {"measurement": "Activity", "setting": "HeLa [5]", "result": "Active"}, {"measurement": "CI", "setting": "HeLa [6]", "result": 0.32}]}
{"smiles": "CC1=CC[C@@H](CC2SCC(=O)N2Cc2ccccc2)C1(C)C", "note": "(stereo partly drawn)", "values": [{"measurement": "IC50", "setting": "[1]", "result": "> 100", "unit": "µM"}]}
{"smiles": "CC1(C)C2CC=C(CC3SCC(=O)N3Cc3ccccc3)C1C2", "note": "(stereo not drawn)", "values": [{"measurement": "IC50", "setting": "[1]", "result": "> 100", "unit": "µM"}]}
{"smiles": "CC1(C)C2CC=C(C3SCC(=O)N3Cc3ccccc3)C1C2", "note": "(stereo not drawn)", "values": [{"measurement": "IC50", "setting": "[1]", "result": "> 100", "unit": "µM"}]}
{"smiles": "CC1=CC[C@@H](CCOc2ccc(C3SCC(=O)N3Cc3ccccc3)cc2)C1(C)C", "note": "(stereo partly drawn)", "values": [{"measurement": "CI", "setting": "HeLa [2]", "result": 0.16}, {"measurement": "CC50", "setting": "[3]", "result": 79, "unit": "µM"}, {"measurement": "IC50", "setting": "[1]", "result": 1.2, "unit": "µM"}, {"measurement": "CC50", "setting": "[4]", "result": 90, "unit": "µM"}, {"measurement": "Activity", "setting": "HeLa [5]", "result": "Active"}, {"measurement": "CI", "setting": "HeLa [6]", "result": 0.25}]}
{"smiles": "CC(C)CCCC(C)CCOc1ccc(C2SCC(=O)N2Cc2ccccc2)cc1", "note": "(stereo not drawn)", "values": [{"measurement": "CI", "setting": "HeLa [2]", "result": 0.29}, {"measurement": "CC50", "setting": "[3]", "result": 66, "unit": "µM"}, {"measurement": "IC50", "setting": "[1]", "result": 1.2, "unit": "µM"}, {"measurement": "CC50", "setting": "[4]", "result": "> 100", "unit": "µM"}, {"measurement": "Activity", "setting": "HeLa [5]", "result": "Active"}, {"measurement": "CI", "setting": "HeLa [6]", "result": 0.51}]}
{"smiles": "COc1cnc2c(c1)C(=O)c1c-2n(CCCNC2=NCCS2)c(=O)c2cc([N+](=O)[O-])ccc12", "values": [{"measurement": "IC50", "setting": "[1]", "result": 12, "unit": "µM"}]}
{"smiles": "CC(C)=CCCC(C)CC1SCC(=O)N1Cc1ccccc1", "note": "(stereo not drawn)", "values": [{"measurement": "IC50", "setting": "[1]", "result": "> 100", "unit": "µM"}]}
{"smiles": "COc1ccc(C2SCC(=O)N2Cc2ccccc2)cc1", "note": "(stereo not drawn)", "values": [{"measurement": "IC50", "setting": "[1]", "result": "> 100", "unit": "µM"}]}
{"smiles": "CC1(C)C2CC=C(COc3ccc(C4SCC(=O)N4Cc4ccccc4)cc3)C1C2", "note": "(stereo not drawn)", "values": [{"measurement": "CI", "setting": "HeLa [2]", "result": 0.21}, {"measurement": "CC50", "setting": "[3]", "result": 74, "unit": "µM"}, {"measurement": "IC50", "setting": "[1]", "result": 1.6, "unit": "µM"}, {"measurement": "CC50", "setting": "[4]", "result": 51, "unit": "µM"}, {"measurement": "Activity", "setting": "HeLa [5]", "result": "Active"}]}
{"smiles": "O=C1CSC(c2ccccc2)N1Cc1ccccc1", "note": "(stereo not drawn)", "values": [{"measurement": "IC50", "setting": "[1]", "result": "> 100", "unit": "µM"}]}
{"smiles": "CC(=O)C1=C(O)C=C2Oc3c(-c4csc(N/N=C/CC(C)CCC=C(C)C)n4)c(O)c(C)c(O)c3[C@@]2(C)C1=O", "note": "(stereo partly drawn)", "values": [{"measurement": "IC50", "setting": "[1]", "result": 0.016, "unit": "µM"}]}
{"smiles": "CC(C)=CCCC(C)CCOc1ccc(C2SCC(=O)N2Cc2ccccc2)cc1", "note": "(stereo not drawn)", "values": [{"measurement": "IC50", "setting": "[1]", "result": "> 100", "unit": "µM"}]}
